{"source": "patent US8895504B2", "about": "“Amylin derivatives” (priority 2008, dated 2014)", "key": {"[1]": {"assay": "Assay (VI) PK - determination of T½ in rat", "type": "in vivo", "settings": "sc, terminal plasma half-life, subcutaneous, approx 20 nmol/kg, male Sprague Dawley rats", "method": "Assay (VI) PK—Determination OF T½ in Rat\nT½ is the terminal half-life=ln 2/λz of a compound in plasma. λz is the first order rate constant associated with the terminal (log-linear) portion of the plasma concentration-time curve and is estimated by linear regression of time vs. log concentration.\nT½ values of the amylin analogues of the invention is determined by pharmacokinetic studies in Sprague Dawley male rats, from Taconic Europe and the principles of laboratory animal care are followed.\nAn acclimatization period of approximately 7 days was allowed before the animals entered the study. At start of the acclimatization period the rats were in the weight range of 300-400 g. The rats had permanent catheters inserted in a. carotis which were used for blood sampling.\nThe studies were conducted in an animal room which was illuminated to give a cycle of approx 12 hours light and 12 hours darkness. The animals were housed individually due to the catheters and had food and water ad lib. The animals were weighed on the days of dosing.\nIn the present studies the test substances were administered subcutaneously in approx 20 nmol/kg dose. The animals received a single subcutaneous injection to the neck using a 25 G needle with syringe. Each test substance was given to typically three but in some cases two or four animals.\nA full plasma concentration-time profile, employing 8-10 sampling points, was obtained from each animal. In example blood samples were collected according to the following schedule:\nAfter subcutaneous administration:\nPredose (0), 0.5, 1, 1.5, 2, 4, 6, 12, 24, 48 and 72 hours after injection. At each sampling time, 0.08 to 0.10 ml of blood was drawn from each animal. The blood samples were taken via the catheter.\nThe blood samples were collected into EDTA test tubes. Blood samples were kept on ice for max 20 min. before centrifugation. Plasma was separated using centrifugation (i.e. at 4° C., 10 min., 1500 G) and was immediately transferred to Micronic tubes or PCR plates. Approximately 40 μl plasma was transferred and was stored at −20° C. until assayed. The plasma samples were assayed for the content of amylin using an ELISA assay.\nThe plasma concentration-time profiles were analysed by a non-compartmental pharmacokinetic analysis (NCA) using WinNonlin Professional 5.0 (Pharsight Inc., Mountain View, Calif., USA). NCA was performed using the individual plasma concentration-time profiles from each animal. T½ is the terminal half-life=ln 2/λz and was determined from λz, the first order rate constant associated with the terminal (log-linear) portion of the curve, estimated by linear regression of time vs. log concentration.\nELISA Plasma Assay for Amylin Quantification\nThe human amylin ELISA is a monoclonal antibody-based sandwich immunoassay for determining amylin levels in human plasma. The capture antibody recognizes human amylin, amylin acid (deamidated amylin), a 1-20 fragment of amylin, but not reduced amylin. The detection antibody binds to reduced or unreduced human amylin but not amylin acid and is complexed with streptavidin-alkaline phosphatase. The substrate, 4-methylumbelliferyl phosphate, is applied to the completed sandwich and the fluorescent signal, monitored at 355 nm/460 nm, is proportional to the amount of amylin present in the sample."}, "[2]": {"assay": "Assay (V) PK - determination of T½ in mini-pig", "type": "in vivo", "settings": "minipig, sc, terminal plasma half-life, subcutaneous, approx 2 nmol/kg, male Göttingen mini-pigs", "summary_of_the_method": "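Male Göttingen mini-pigs (5–12 months, 7–35 kg) got a single s.c. neck injection of approx 2 nmol/kg; plasma sampled via central venous catheter predose to 240 h (some to 288 h). Amylin measured by sandwich ELISA; T½ = ln 2/λz from non-compartmental analysis of individual profiles.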"}, "[3]": {"molecular_target": "T1, Amylin 3(a) receptor (human calcitonin receptor (CTa) and RAMP-3) (Homo sapiens, UniProt O60896+P30988)", "T1 construct": "expressed in transfected cells; host or cells: BHK570 cells, stably transfected with a CRE-luciferase reporter", "T1 sequence (O60896 24-148)": "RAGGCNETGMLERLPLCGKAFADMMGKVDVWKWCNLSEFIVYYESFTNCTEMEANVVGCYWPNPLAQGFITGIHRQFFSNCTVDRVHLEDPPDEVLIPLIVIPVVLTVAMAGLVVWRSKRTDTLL", "T1 sequence (P30988 25-474)": "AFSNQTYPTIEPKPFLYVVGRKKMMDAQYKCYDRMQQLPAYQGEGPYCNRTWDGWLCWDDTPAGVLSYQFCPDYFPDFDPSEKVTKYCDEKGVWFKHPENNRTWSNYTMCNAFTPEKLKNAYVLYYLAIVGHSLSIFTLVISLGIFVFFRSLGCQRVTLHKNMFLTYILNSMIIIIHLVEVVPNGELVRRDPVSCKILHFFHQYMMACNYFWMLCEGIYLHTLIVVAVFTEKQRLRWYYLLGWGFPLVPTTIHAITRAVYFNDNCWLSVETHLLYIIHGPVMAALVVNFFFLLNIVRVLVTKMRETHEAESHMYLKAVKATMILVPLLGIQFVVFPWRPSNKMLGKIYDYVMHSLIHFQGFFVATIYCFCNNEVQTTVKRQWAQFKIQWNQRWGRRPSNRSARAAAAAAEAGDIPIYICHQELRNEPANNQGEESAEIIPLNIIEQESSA", "assay": "Luciferase assay (III), BHK Amylin 3(a)//CRE-luc cells", "type": "cell-based", "settings": "BHK cells with Amylin 3(a) receptor and CRE luciferase reporter, 4 hours incubation; read-out: Potency Luciferase", "summary_of_the_method": "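Read-out is CRE-driven luciferase luminescence, taken 30 min after LucLite addition at room temperature. Compounds were incubated 4 h at 37° C in assay medium (10% FBS, 10 mM Hepes, pH 7,4). The cell line is BHK570 co-transfected with human calcitonin receptor CTa and RAMP-3, seeded overnight before use.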"}}, "note": "*1 amine or outer side, *2 acyl side, *3 side chain or, on linkers, in order; H or OH if unused. Where a SMILES comes first, the peptide text is derived from it. Bridges are numbered along the chain shown (N, C = ends). The star is where a group is joined. C20 diacid = O=C(O)CCCCCCCCCCCCCCCCCCC(=O)*; C18 diacid = O=C(O)CCCCCCCCCCCCCCCCC(=O)*; γGlu = O=C(O)[C@H](CCC(=O)[*:2])N[*:1]"}
{"smiles": "CC[C@H](C)[C@H](NC(=O)[C@@H]1CCCN1C(=O)CNC(=O)[C@H](Cc1ccccc1)NC(=O)[C@H](CC(N)=O)NC(=O)[C@H](CC(N)=O)NC(=O)[C@H](CO)NC(=O)[C@H](CO)NC(=O)[C@H](Cc1c[nH]cn1)NC(=O)[C@H](CCCNC(=N)N)NC(=O)[C@H](CC(C)C)NC(=O)[C@H](Cc1ccccc1)NC(=O)[C@H](CC(N)=O)NC(=O)[C@H](C)NC(=O)[C@H](CC(C)C)NC(=O)[C@H](CCCNC(=N)N)NC(=O)[C@H](CCC(N)=O)NC(=O)[C@@H](NC(=O)[C@H](C)NC(=O)[C@@H]1CSSC[C@H](NC(=O)[C@H](CCCCN)NC(=O)[C@H](CCCNC(=N)N)NC(=O)CC[C@H](NC(=O)CCCCCCCCCCCCCCCCCCC(=O)O)C(=O)O)C(=O)N[C@@H](CC(N)=O)C(=O)N[C@@H]([C@@H](C)O)C(=O)N[C@@H](C)C(=O)N[C@@H]([C@@H](C)O)C(=O)N1)[C@@H](C)O)C(=O)N[C@@H](CC(C)C)C(=O)N1CCC[C@H]1C(=O)N1CCC[C@H]1C(=O)N[C@H](C(=O)N[C@@H](CC(N)=O)C(=O)N[C@H](C(=O)NCC(=O)N[C@@H](CO)C(=O)N[C@@H](CC(N)=O)C(=O)N[C@H](C(=O)N[C@@H](Cc1ccc(O)cc1)C(N)=O)[C@@H](C)O)C(C)C)[C@@H](C)O", "note": "[Example 22, N-alpha-[(S)-4-Carboxy-4-(19-carboxynonadecanoylamino)butyryl]-Arg-[Arg17]-pramlintide] ({C20 diacid-γGlu}-RKCNTATCATQRLANFLRHSSNNFGPILPPTNVGSNTY-NH2; disulfide 3-8)", "values": [{"measurement": "half-life", "setting": "[1]", "result": 13, "unit": "h"}, {"measurement": "half-life", "setting": "[2]", "result": 34, "unit": "h"}, {"measurement": "EC50", "setting": "[3]", "result": 0.1, "unit": "nM"}]}
{"smiles": "CC[C@H](C)[C@H](NC(=O)[C@@H]1CCCN1C(=O)CNC(=O)[C@H](Cc1ccccc1)NC(=O)[C@H](CC(N)=O)NC(=O)[C@H](CC(N)=O)NC(=O)[C@H](CO)NC(=O)[C@H](CO)NC(=O)[C@H](Cc1c[nH]cn1)NC(=O)[C@H](Cc1c[nH]cn1)NC(=O)[C@H](CC(C)C)NC(=O)[C@H](Cc1ccccc1)NC(=O)[C@H](CC(N)=O)NC(=O)[C@H](C)NC(=O)[C@H](CC(C)C)NC(=O)[C@H](CCCNC(=N)N)NC(=O)[C@H](CCC(N)=O)NC(=O)[C@@H](NC(=O)[C@H](C)NC(=O)[C@@H]1CSSC[C@H](NC(=O)CC[C@H](NC(=O)CCCCCCCCCCCCCCCCC(=O)O)C(=O)O)C(=O)N[C@@H](CC(N)=O)C(=O)N[C@@H]([C@@H](C)O)C(=O)N[C@@H](C)C(=O)N[C@@H]([C@@H](C)O)C(=O)N1)[C@@H](C)O)C(=O)N[C@@H](CC(C)C)C(=O)N1CCC[C@H]1C(=O)N1CCC[C@H]1C(=O)N[C@H](C(=O)N[C@@H](CC(N)=O)C(=O)N[C@H](C(=O)NCC(=O)N[C@@H](CO)C(=O)N[C@@H](CC(N)=O)C(=O)N[C@H](C(=O)N[C@@H](Cc1ccc(O)cc1)C(N)=O)[C@@H](C)O)C(C)C)[C@@H](C)O", "note": "[Example 10, N-alpha-[(S)-4-Carboxy-4-(17-carboxyheptadecanoylamino)butyryl]-[His17]-pramlintide (2-37)] ({C18 diacid-γGlu}-CNTATCATQRLANFLHHSSNNFGPILPPTNVGSNTY-NH2; disulfide 1-6)", "values": [{"measurement": "half-life", "setting": "[1]", "result": 11, "unit": "h"}, {"measurement": "half-life", "setting": "[2]", "result": 66, "unit": "h"}, {"measurement": "EC50", "setting": "[3]", "result": 0.08, "unit": "nM"}]}
{"smiles": "CC[C@H](C)[C@H](NC(=O)[C@@H]1CCCN1C(=O)CNC(=O)[C@H](Cc1ccccc1)NC(=O)[C@H](CC(N)=O)NC(=O)[C@H](CC(N)=O)NC(=O)[C@H](CO)NC(=O)[C@H](CO)NC(=O)[C@H](Cc1c[nH]cn1)NC(=O)[C@H](CO)NC(=O)[C@H](CC(C)C)NC(=O)[C@H](Cc1ccccc1)NC(=O)[C@H](CC(N)=O)NC(=O)[C@H](C)NC(=O)[C@H](CC(C)C)NC(=O)[C@H](CCCNC(=N)N)NC(=O)[C@H](CCC(N)=O)NC(=O)[C@@H](NC(=O)[C@H](C)NC(=O)[C@@H]1CSSC[C@H](NC(=O)[C@H](CCCCN)NC(=O)[C@H](CCCNC(=N)N)NC(=O)CC[C@H](NC(=O)CCCCCCCCCCCCCCCCCCC(=O)O)C(=O)O)C(=O)N[C@@H](CC(N)=O)C(=O)N[C@@H]([C@@H](C)O)C(=O)N[C@@H](C)C(=O)N[C@@H]([C@@H](C)O)C(=O)N1)[C@@H](C)O)C(=O)N[C@@H](CC(C)C)C(=O)N1CCC[C@H]1C(=O)N1CCC[C@H]1C(=O)N[C@H](C(=O)N[C@@H](CC(N)=O)C(=O)N[C@H](C(=O)NCC(=O)N[C@@H](CO)C(=O)N[C@@H](CC(N)=O)C(=O)N[C@H](C(=O)N[C@@H](Cc1ccc(O)cc1)C(N)=O)[C@@H](C)O)C(C)C)[C@@H](C)O", "note": "[Example 20, N-alpha-[(S)-4-Carboxy-4-(19-carboxynonadecanoylamino)butyryl]-Arg-[Ser17]-pramlintide] ({C20 diacid-γGlu}-RKCNTATCATQRLANFLSHSSNNFGPILPPTNVGSNTY-NH2; disulfide 3-8)", "values": [{"measurement": "half-life", "setting": "[1]", "result": 10, "unit": "h"}, {"measurement": "half-life", "setting": "[2]", "result": 41, "unit": "h"}, {"measurement": "EC50", "setting": "[3]", "result": 0.1, "unit": "nM"}]}
{"smiles": "CC[C@H](C)[C@H](NC(=O)[C@@H]1CCCN1C(=O)CNC(=O)[C@H](Cc1ccccc1)NC(=O)[C@H](CC(N)=O)NC(=O)[C@H](CC(N)=O)NC(=O)[C@H](CO)NC(=O)[C@H](CO)NC(=O)[C@H](Cc1c[nH]cn1)NC(=O)[C@H](Cc1c[nH]cn1)NC(=O)[C@H](CC(C)C)NC(=O)[C@H](Cc1ccccc1)NC(=O)[C@H](CC(N)=O)NC(=O)[C@H](C)NC(=O)[C@H](CC(C)C)NC(=O)[C@H](CCCNC(=N)N)NC(=O)[C@H](CCC(N)=O)NC(=O)[C@@H](NC(=O)[C@H](C)NC(=O)[C@@H]1CSSC[C@H](NC(=O)[C@H](CCCCN)NC(=O)CC[C@H](NC(=O)CCCCCCCCCCCCCCCCCCC(=O)O)C(=O)O)C(=O)N[C@@H](CC(N)=O)C(=O)N[C@@H]([C@@H](C)O)C(=O)N[C@@H](C)C(=O)N[C@@H]([C@@H](C)O)C(=O)N1)[C@@H](C)O)C(=O)N[C@@H](CC(C)C)C(=O)N1CCC[C@H]1C(=O)N1CCC[C@H]1C(=O)N[C@H](C(=O)N[C@@H](CC(N)=O)C(=O)N[C@H](C(=O)NCC(=O)N[C@@H](CO)C(=O)N[C@@H](CC(N)=O)C(=O)N[C@H](C(=O)N[C@@H](Cc1ccc(O)cc1)C(N)=O)[C@@H](C)O)C(C)C)[C@@H](C)O", "note": "[Example 5, N-alpha-[(S)-4-Carboxy-4-(19-carboxynonadecanoylamino)butyryl]-[His17]-pramlintide] ({C20 diacid-γGlu}-KCNTATCATQRLANFLHHSSNNFGPILPPTNVGSNTY-NH2; disulfide 2-7)", "values": [{"measurement": "half-life", "setting": "[1]; in vivo", "result": 16, "unit": "h"}, {"measurement": "half-life", "setting": "[2]; in vivo", "result": 70, "unit": "h"}, {"measurement": "EC50", "setting": "[3]", "result": 0.1, "unit": "nM"}]}
